# Assay results reported in patent EP4806435A1, “DIHYDROCHROMENE-DERIVATIVE-CONTAINING THERAPEUTIC AGENT FOR CANCER” (Sumitomo Pharma Co., Ltd., priority 2023, dated 2025).
# What was measured:
# [1] = system: luciferase-expressing U-87 cells; assay: In vivo efficacy, combination with bevacizumab, orthotopic brain tumor (IVIS imaging); conditions: Compound 1 10 mg/kg twice daily (once daily from day 30) + bevacizumab 1 mg/kg twice weekly; brain tumors in immunodeficient mice
# Procedure: Luciferase-expressing U-87 cells, in which the luminescent enzyme luciferase was forcibly expressed, were established (obtained from ATCC (American Type Culture Collection)). 1 x 10^6 of these cells were implanted into the brains of immunodeficient mice to establish brain tumors. On day 18 after tumor cell implantation, administration was initiated with Compound 1 at 10 mg/kg (twice daily) and bevacizumab at 1 mg/kg (twice weekly). On day 30, the dosing frequency of Compound 1 was reduced to once daily. The efficacy of each monotherapy and the combination therapy was evaluated by quantifying orthotopic tumor progression using an IVIS Imaging System and comparing the results.
# [2] = system: B16 cells; assay: In vivo efficacy, combination with ipilimumab, B16 tumors; set-up: species or system C57BL/6J mice; conditions: Compound 1 3 mg/kg or 10 mg/kg once daily + ipilimumab 5 mg/kg once weekly; B16, subcutaneous
# Procedure: B16 cells (3 x 10^5) were subcutaneously implanted into C57BL/6J mice (n = 6) to establish tumors. On day 12 after implantation, administration was initiated with Compound 1 at 3 mg/kg or 10 mg/kg (once daily) and ipilimumab (an anti-CTLA-4 antibody) at 5 mg/kg (once weekly), and the efficacy of each monotherapy and the combination therapy was compared.
# Tumor volume was calculated using the following formula based on the short and long diameters of the tumor measured with digital calipers (Mitutoyo). [formula]
# The antitumor effect was evaluated by comparing the vehicle-treated control group with the test substance-treated group, and calculating T/C using the following formula. [formula]
# [3] = system: BT142 cells; assay: Cytotoxicity assay, LDL-supplemented sphere culture, low-grade glioma line (ATP); type: cell-based; conditions: 1 µM; 7 days; LDL 5 µg/mL; BT142 (IDH1 mutant-type, R132H/-)
# Procedure: U-87 cells (IDH1 wild-type) and BT142 cells derived from low-grade glioma (IDH1 mutant-type, R132H/-) were cultured for 7 days in LDL-supplemented sphere medium in the presence or absence of Compound 1 (1 µM). The LDL concentration was 5 µg/mL. After incubation, intracellular ATP levels were quantified as an indicator of cell viability, and cytotoxicity was compared between conditions.
smiles,measurement,setting,value
"CC1(C)Oc2cc(Cl)ccc2[C@@H]2OCC3(CCN(CCn4ccnc4)CC3)C[C@H]21 [Compound 1, (4'aR,10'bR)-8'-chloro-1-[2-(1H-imidazol-1-yl)ethyl]-5',5'-dimethyl-4'a,10'b-dihydro-2'H,4'H,5'H-spiro[piperidine-4,3'-pyrano[3,2-c][1]benzopyran] diphosphate]",antitumor effect in combination with bevacizumab,[1],remarkably enhanced antitumor effect
same,antitumor effect in combination with ipilimumab,[2],remarkably pronounced antitumor effect
same,cytotoxicity,[3],marked cytotoxicity
